From patent publication EP1184367A1, “AMIDE DERIVATIVES” (Sumitomo Pharmaceuticals Company, Limited, priority 1999, dated 2000)
Where two headings read alike, the source gives them in different places.

Test system: constant white light-induced retinal damage
Excerpt: Male Wistar rats (7 weeks old, Charles River Japan Inc.) were purchased and maintained in cyclic light / dark environment (8:00-20:00 / light term) for one week, and then placed within the apparatus for constant white light exposure for two days. The constant white light exposure apparatus is a covered breeding box of 1020 mm in length, 425 mm in width, 520 mm in height, which is made of acryl boards and of which all inner side are covered with mirrors. Light was continuously irradiated all the day long (24 hours) using white fluorescent lamp attached to the ceiling of the apparatus. The average illuminance in the apparatus was 174.2 foot candle. After two days in the apparatus, the rats were moved to a darkroom and dark adapted for 1-4 hours. The rats were anesthetized with pentobarbital and placed in a stereotaxic frame. After topical mydriatica was given and electrodes were put on corneal surface, center of the forehead and the lower part of the lobe, the response in active potential of retina to the flash stimulation with fixed energy was determined from the recorded ERG (electroretinogram). The damage of retina was evaluated by the decrease in the amplitude of ERG a-wave which originated from retinal outer nuclear cells (photoreceptors). […]

Row | SMILES | % recovery (Mean±S.E.M.) (rat, in vivo, po, 100 mg/kg) [%] | % recovery (Mean±S.E.M.) (rats, 100 mg/kg orally administered in 0.5 % methylcellulose, just before constant light exposure and at the same time on the next day, two days of exposure, ERG a-wave amplitude relative to normal control and MC groups, five rats in a group) [%]
1 | CC(C)(COC(=O)CCC(=O)O)NC(=O)c1ccc(F)cc1F [Example 3, N-(2-(3-Carboxypropionyloxy)-1,1-dimethylethyl)-2,4-difluorobenzamide] | 14.0 ± 3.1 | –
2 | CC(C)(COC(=O)CN)NC(=O)c1ccc(F)cc1F.O=S(=O)(O)c1ccccc1 [Example 4, N-(2-Glycyloxy-1,1-dimethylethyl)-2,4-difluorobenzamide benzenesulfonate] | – | 19.5 ± 3.3
